Assay results taken from the supplement of paper PMC11451515.

Tested on: SEM cells
Assay: cell viability relative to DMSO control; higher = less cytotoxic
Settings: 48 h
Method in brief: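 Library compounds in DMSO were pin-dosed into 1536-well plates (5 μl) holding NOMO1 or SEM (500 cells/well) or P12-Ichikawa (1000 cells/well) leukemia cells, across an 11-point threefold series of 47 μM to 0.79 nM. Each cell line had been adapted for at least four passages in each medium. CellTiter-Glo One luminescence was read after 48 h at 37°C. Viability is the per-plate percentage relative to DMSO wells, with cell-free wells as background.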

[1] = HPLM + 10% dialyzed FBS, 0.000781 µM
[2] = HPLM + 10% dialyzed FBS, 0.00234 µM
[3] = HPLM + 10% dialyzed FBS, 0.00702 µM
[4] = HPLM + 10% dialyzed FBS, 0.0211 µM
[5] = HPLM + 10% dialyzed FBS, 0.0632 µM
[6] = HPLM + 10% dialyzed FBS, 0.19 µM
[7] = HPLM + 10% dialyzed FBS, 0.569 µM
[8] = HPLM + 10% dialyzed FBS, 1.71 µM
[9] = HPLM + 10% dialyzed FBS, 5.12 µM
[10] = HPLM + 10% dialyzed FBS, 15.4 µM
[11] = HPLM + 10% dialyzed FBS, 46.1 µM
[12] = RPMI 5 mM glucose + 10% FBS, 0.000781 µM
[13] = RPMI 5 mM glucose + 10% FBS, 0.00234 µM
[14] = RPMI 5 mM glucose + 10% FBS, 0.00702 µM
[15] = RPMI 5 mM glucose + 10% FBS, 0.0211 µM
[16] = RPMI 5 mM glucose + 10% FBS, 0.0632 µM
[17] = RPMI 5 mM glucose + 10% FBS, 0.19 µM
[18] = RPMI 5 mM glucose + 10% FBS, 0.569 µM
[19] = RPMI 5 mM glucose + 10% FBS, 1.71 µM
[20] = RPMI 5 mM glucose + 10% FBS, 5.12 µM
[21] = RPMI 5 mM glucose + 10% FBS, 15.4 µM
[22] = RPMI 5 mM glucose + 10% FBS, 46.1 µM
[23] = RPMI 5 mM glucose + 10% dialyzed FBS, 0.000781 µM
[24] = RPMI 5 mM glucose + 10% dialyzed FBS, 0.00234 µM
[25] = RPMI 5 mM glucose + 10% dialyzed FBS, 0.00702 µM
[26] = RPMI 5 mM glucose + 10% dialyzed FBS, 0.0211 µM
[27] = RPMI 5 mM glucose + 10% dialyzed FBS, 0.0632 µM
[28] = RPMI 5 mM glucose + 10% dialyzed FBS, 0.19 µM
[29] = RPMI 5 mM glucose + 10% dialyzed FBS, 0.569 µM
[30] = RPMI 5 mM glucose + 10% dialyzed FBS, 1.71 µM
[31] = RPMI 5 mM glucose + 10% dialyzed FBS, 5.12 µM
[32] = RPMI 5 mM glucose + 10% dialyzed FBS, 15.4 µM
[33] = RPMI 5 mM glucose + 10% dialyzed FBS, 46.1 µM

| SMILES | cell viability [1] [%] | cell viability [2] [%] | cell viability [3] [%] | cell viability [4] [%] | cell viability [5] [%] | cell viability [6] [%] | cell viability [7] [%] | cell viability [8] [%] | cell viability [9] [%] | cell viability [10] [%] | cell viability [11] [%] | cell viability [12] [%] | cell viability [13] [%] | cell viability [14] [%] | cell viability [15] [%] | cell viability [16] [%] | cell viability [17] [%] | cell viability [18] [%] | cell viability [19] [%] | cell viability [20] [%] | cell viability [21] [%] | cell viability [22] [%] | cell viability [23] [%] | cell viability [24] [%] | cell viability [25] [%] | cell viability [26] [%] | cell viability [27] [%] | cell viability [28] [%] | cell viability [29] [%] | cell viability [30] [%] | cell viability [31] [%] | cell viability [32] [%] | cell viability [33] [%] |
| --- | --- | --- | --- | --- | --- | --- | --- | --- | --- | --- | --- | --- | --- | --- | --- | --- | --- | --- | --- | --- | --- | --- | --- | --- | --- | --- | --- | --- | --- | --- | --- | --- | --- |
| OC[C@H](Cc1ccccc1)Nc1nc(Oc2ccc3c(c2)CCC3)nc2c1ncn2Cc1ccc(-c2ccccc2)cc1 | 90.7 | 101 | 98.5 | 107 | 108 | 78.4 | 105 | 99.2 | 103 | 80.3 | 62.9 | 85.3 | 85.9 | 91.7 | 93.8 | 89.5 | 89.2 | 95 | 97.9 | 94.7 | 80.7 | 76.7 | 80 | 97.8 | 94.3 | 89.5 | 92.4 | 89.2 | 100 | 101 | 88.5 | 84.4 | 69.9 |
| CCc1c(C(=O)C(N)=O)c2c(OCC(=O)O)cccc2n1Cc1ccccc1 | 103 | 93.2 | 94.3 | 107 | 98.7 | 104 | 102 | 98.2 | 90.8 | 88.3 | 84.5 | 101 | 100 | 116 | 110 | 90.8 | 98.4 | 111 | 111 | 114 | 88.4 | 82.6 | 92.9 | 102 | 104 | 116 | 104 | 105 | 123 | 92.7 | 106 | 91.9 | 89.3 |
| CCNC(=O)c1cc2c(-c3cc(OCCN4CCCC4)c(Cl)cc3Cl)nc(N)nc2s1 | 114 | 112 | 112 | 101 | 104 | 114 | 101 | 95.2 | 32.2 | 20.1 | 19.4 | 103 | 108 | 117 | 96.6 | 112 | 112 | 112 | 86.9 | 31.9 | 21.8 | 18.7 | 96.2 | 98.6 | 92.2 | 110 | 98.7 | 112 | 98 | 68.3 | 30.3 | 19.4 | 19.1 |
| CC(=O)NC(CS)C(=O)O (stereo not given) | 71.5 | 71.7 | 75.7 | 63.5 | 82.3 | 62.5 | 66.7 | 84.1 | 90 | 36.1 | 62.3 | 93.5 | 93.7 | 87.8 | 99.1 | 99.8 | 90.8 | 95.4 | 116 | 114 | 27.7 | 29.2 | 76.7 | 57.8 | 86.2 | 65.5 | 88.4 | 64 | 83.6 | 78.7 | 108 | 30.9 | 54.9 |
| O=C(/C=C/c1cccc([S+](=O)([O-])Nc2ccccc2)c1)NO | 113 | 119 | 122 | 129 | 124 | 75.6 | 58.4 | 26.4 | 12.2 | 8.53 | 8.48 | 106 | 150 | 124 | 120 | 118 | 81.1 | 53 | 26.7 | 10.6 | 8.84 | 8.83 | 95.9 | 123 | 120 | 113 | 128 | 83.6 | 52 | 20.9 | 9.84 | 8.65 | 8.77 |
| CC(=O)C\1=C(/C)C2=CN=C(NC3=CC=C(C=N3)N4CCNCC4)N=C2N(C5CCCC5)C1=O | 124 | 125 | 107 | 125 | 119 | 109 | 80.6 | 68.1 | 59.6 | 60.8 | 27.5 | 114 | 119 | 133 | 113 | 126 | 126 | 100 | 80.5 | 61.6 | 59.9 | 22.2 | 125 | 107 | 130 | 122 | 127 | 99.2 | 86.8 | 74.4 | 68.5 | 63.6 | 29.2 |
| C[C@@]12O[C@@H](C[C@]1(O)CO)n1c3ccccc3c3c4c(c5c6ccccc6n2c5c31)CNC4=O | 117 | 125 | 127 | 109 | 89.7 | 65.5 | 27.3 | 18.4 | 14.8 | 11.8 | 7.23 |  |  |  |  |  |  |  |  |  |  |  | 118 | 111 | 96.4 | 106 | 65 | 52.1 | 20.2 | 13 | 8.04 | 6.86 | 5.81 |
